Experimental data from US20250115598A1 (Anaxis Pharma Pty Ltd, priority 2021, published 2025).
Read-outs that look alike come from different tables or passages of the source.

Legend:
human RIPK1 = human RIPK1 (Homo sapiens (Human), UniProt Q13546); assay: KINOMEscan binding assay, human RIPK1; settings: Table 21
Outline: (§1)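 KINOMEscan competition binding using kinase-tagged T7 phage or HEK-293-produced DNA-tagged protein captured on ligand beads, with eluted protein quantified by qPCR. Compounds were run as an 11-point 3-fold series, top 30,000 nM, in 1% DMSO. Kd was fitted with the Hill equation, slope fixed at −1.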

human RIPK3 = human RIPK3 (Homo sapiens (Human), UniProt Q9Y572); assay: KINOMEscan binding assay, human RIPK3; settings: Table 21
Outline: as §1

[1] = system: Immortalised Mouse Dermal Fibroblasts (MDFs); assay: Cellular assay: inhibition of TSI induced necroptosis, CellTitre-Glo viability; settings: Mus musculus, Fibroblast, MDF, 3 hours TSI cocktail, read-out: Inhibition of TSI-induced necroptosis (IC50 cell-based assay) in MDF
Protocol: Cellular Assay: Screening Compounds for Inhibition of TSI Induced Necroptosis in, 384 Well Plate Format.
• Cell Line ID: Immortalised Mouse Dermal Fibroblasts (MDFs). • Cell Concentration (cells/well): Final cell density is 2200 cells per well. • Cell growth medium: DMEM medium+7.4% Fetal Bovine Serum (FBS). Cells are cultured in Corning 150 cm^2 tissue culture flasks with vented caps at 37° C./10% CO2. • Incubation: Plates were incubated for 30 minutes following addition of compounds and then 3 hours incubation with death stimuli (TSI cocktail) at 37° C./10% CO2 in a humidified incubator. • Compound concentration: 36 μM starting concentration, 1:3 dilution, 10 point • DMSO final concentration (% v/v): 0.3%. Compounds in TSI Cocktail (T: TNF; S: Smac Mimetic; I: IDN-6556) and their Final Concentrations: • rhTNF (100 ng/ml) • Compound a (500 nM)—Smac Mimetic, Tetralogic and SYNthesis Med Chem • IDN-6556 (10 μM)—Selleckchem (S7775)
The cellular assay was carried out according to the following steps: • 1. Each well was prepared by sequential addition of: • a. 40 μL of cell suspension (5.5×10^4 cells/mL) was added to each well to provide a final cell concentration of 2,200 cells per well. • b. After 24 hours, DMSO (control; columns 1-2 and 23-24) or compound in DMSO—addition was performed using acoustic transfer of nL volumes of stock compound to give final test concentrations of 36, 12, 4, 1.3, 0.44, 0.148, 0.049, 0.016, 0.005 and 0.002 μM. All wells were backfilled with DMSO to a final total volume in the well of 100 nL. • c. Following compound/DMSO addition in step (b), Plates were incubated for 30 minutes at 37° C./10% CO2 in a humidified incubator and then 10 μL of 5×TSI cocktail (except to positive controls; columns 2 and 24) was added to each well. • 2. After 3 hours, plate was removed from the 37° C. incubator and equilibrated to room temperature for 15 minutes. • 3. 15 μL of room temperatured CellTitre-Glo2™ (Promega™) was added to each well. • 4. Shook plates for 2 minutes (˜600 rpm) and incubated at room temperature for 15 minutes to allow signal to stabilise. • 5. Read luminescence readout on a plate reader.
Percent viability was calculated for each compound according to equation (2):
[formula] • Wherein RawData is the readout of any cell containing a compound of the invention.
TA is the total activity provided by the luminescence readout from DMSO only wells (columns 2 and 24)=100% viability.
NSA is the non-specific activity provided by DMSO+TSI wells (columns 1 and 23)=0% viability • Curve fitting: 10-point titration curves are fitted with the 4-parameter logistic nonlinear regression model and the IC50 reported is the inflection point of the curve • Analysis: Data was loaded into Dotmatics™ and visualised using the Tibco@ • Spotfire™ software. 10 point titration curves were fitted with the 4 parameter logistic nonlinear regression model and the IC50 reported reflect the inflection point of the curve for curve fitting.
Assay involving the TSI cocktail (T: TNF; S: Smac mimetic; I: IDN-6556): TSI treatment ensures that cells specifically undergo necroptotic cell death. TNF activates the TNF receptor, Smac mimetic directs the signal away from proinflammatory signaling and toward the RIPK1/RIPK3-mediated cell death pathways, and IDN-6556 (Caspase inhibitor) ensures that the apoptotic response is blocked leaving only the programmed necrosis response. The compounds' activity (solution in DMSO) tested in this TSI-induced assay was evaluated by determining the number of viable cells in culture by measuring the amount of ATP present as measured by CelltiterGlo.

human MLKL (full length) = human MLKL (full length) (Homo sapiens (Human), UniProt Q8NB16); assay: KINOMEscan binding assay, human MLKL (full length)
Outline: as §1

[2] = KINOMEscan, Table 21, read-out: Human MLKL (full-length) (KD)
[3] = hMLKL, Table 25, read-out: MLKL (KD)

Chain of human RIPK1 (Q13546 whole entry): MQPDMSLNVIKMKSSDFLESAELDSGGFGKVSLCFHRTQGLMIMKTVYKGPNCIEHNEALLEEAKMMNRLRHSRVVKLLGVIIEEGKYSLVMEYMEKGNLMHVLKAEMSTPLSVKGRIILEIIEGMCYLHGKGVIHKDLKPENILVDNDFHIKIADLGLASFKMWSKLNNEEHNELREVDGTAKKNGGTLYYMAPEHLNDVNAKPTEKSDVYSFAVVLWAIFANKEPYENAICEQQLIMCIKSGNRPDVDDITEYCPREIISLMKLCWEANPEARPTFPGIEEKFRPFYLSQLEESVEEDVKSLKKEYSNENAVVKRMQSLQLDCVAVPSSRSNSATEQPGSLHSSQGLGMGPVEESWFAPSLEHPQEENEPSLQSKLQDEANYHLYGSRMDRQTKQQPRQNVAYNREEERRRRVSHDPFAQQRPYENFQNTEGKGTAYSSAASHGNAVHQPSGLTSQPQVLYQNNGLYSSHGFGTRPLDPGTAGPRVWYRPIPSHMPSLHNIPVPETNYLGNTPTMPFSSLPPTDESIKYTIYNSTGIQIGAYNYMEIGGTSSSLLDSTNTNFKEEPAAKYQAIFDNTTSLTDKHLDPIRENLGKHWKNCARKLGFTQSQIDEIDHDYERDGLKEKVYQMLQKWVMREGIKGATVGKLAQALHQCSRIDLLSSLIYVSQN
Chain of human MLKL (full length) (Q8NB16 whole entry): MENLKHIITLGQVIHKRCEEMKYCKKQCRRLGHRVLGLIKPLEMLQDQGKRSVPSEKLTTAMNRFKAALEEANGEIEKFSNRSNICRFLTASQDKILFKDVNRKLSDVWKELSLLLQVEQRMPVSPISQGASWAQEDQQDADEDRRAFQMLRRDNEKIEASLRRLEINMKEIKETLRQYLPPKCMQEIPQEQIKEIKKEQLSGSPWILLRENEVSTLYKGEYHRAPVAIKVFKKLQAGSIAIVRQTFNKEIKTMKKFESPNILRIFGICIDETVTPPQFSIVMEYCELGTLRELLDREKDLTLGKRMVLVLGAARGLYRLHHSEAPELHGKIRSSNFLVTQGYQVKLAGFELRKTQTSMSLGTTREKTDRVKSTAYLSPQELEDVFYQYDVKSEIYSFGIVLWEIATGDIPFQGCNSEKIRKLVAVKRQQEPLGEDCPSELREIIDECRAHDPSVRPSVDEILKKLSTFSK
Chain of human RIPK3 (Q9Y572 whole entry): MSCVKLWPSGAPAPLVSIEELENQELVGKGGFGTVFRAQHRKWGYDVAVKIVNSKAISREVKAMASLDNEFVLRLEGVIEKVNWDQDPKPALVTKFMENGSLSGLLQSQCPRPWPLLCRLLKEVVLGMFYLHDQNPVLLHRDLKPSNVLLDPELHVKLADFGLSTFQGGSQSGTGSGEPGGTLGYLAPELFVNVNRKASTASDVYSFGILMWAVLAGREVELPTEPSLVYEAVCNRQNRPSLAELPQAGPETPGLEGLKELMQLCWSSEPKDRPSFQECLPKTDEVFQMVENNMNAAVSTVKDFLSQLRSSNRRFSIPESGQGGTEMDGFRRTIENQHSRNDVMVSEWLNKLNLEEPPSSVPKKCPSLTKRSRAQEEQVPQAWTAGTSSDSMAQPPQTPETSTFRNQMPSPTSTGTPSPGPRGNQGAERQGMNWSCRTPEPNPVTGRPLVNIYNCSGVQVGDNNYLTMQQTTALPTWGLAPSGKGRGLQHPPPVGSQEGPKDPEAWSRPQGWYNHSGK

Kd (human RIPK1) | Kd (human RIPK3) | Kd (human MLKL (full length); [2]) | Kd (human MLKL (full length); [3]) | SMILES | IC50 ([1]; Table 24) | IC50 ([1]; Table 27)
> 10 µM | > 10 µM | < 0.001 µM |  | C[C@H](Oc1cc(-c2nn(C)c3c(C#CC4CCN(C)CC4)cnc(N)c23)ccc1NS(=O)(=O)C(F)F)c1ccc(F)cc1 [Compound 80, (S)—N-(4-(4-amino-1-methyl-7-((1-methylpiperidin-4-yl)ethynyl)-1H-pyrazolo[4,3-c]pyridin-3-yl)-2-(1-(4-fluorophenyl)ethoxy)phenyl)-1,1-difluoromethanesulfonamide] | < 1 µM | 
> 10 µM | > 10 µM | < 0.001 µM |  | C[C@H](Oc1cc(-c2nn(C)c3c(-c4cnn(C5CCC(C)(C)N(C)C5)c4)cnc(N)c23)ccc1NS(=O)(=O)C(F)F)c1ccc(F)cc1 (some centres unmarked) [Compound 104, N-(4-{4-amino-1-methyl-7-[1-(1,6,6-trimethylpiperidin-3-yl)-1H-pyrazol-4-yl]-1H-pyrazolo[4,3-c]pyridin-3-yl}-2-[(1 S)-1-(4-fluorophenyl)ethoxy]phenyl)-1,1-difluoromethanesulfonamide] | < 1 µM | 
> 10 µM | > 10 µM | < 0.001 µM |  | CC(=O)N1CCC(n2cc(-c3cnc(N)c4c(-c5ccc(NS(=O)(=O)C(F)F)c(O[C@@H](C)c6ccc(F)cc6)c5)nn(C)c34)cn2)CC1 [Compound 109, (S)—N-(4-(7-(1-(1-acetylpiperidin-4-yl)-1H-pyrazol-4-yl)-4-amino-1-methyl-1H-pyrazolo[4,3-c]pyridin-3-yl)-2-(1-(4-fluorophenyl)ethoxy)phenyl)-1,1-difluoromethanesulfonamide] | < 1 µM | 
> 10 µM | > 10 µM |  |  | CC1C(n2cc(-c3cnc(N)c4c(-c5ccc(NS(=O)(=O)C(F)F)c(O[C@@H](C)c6ccc(F)cc6)c5)nn(C)c34)cn2)CN1C (stereo partly drawn) [Compound 147, N-(4-(4-amino-7-(1-(1,2-dimethylazetidin-3-yl)-1H-pyrazol-4-yl)-1-methyl-1H-pyrazolo[4,3-c]pyridin-3-yl)-2-((S)-1-(4-fluorophenyl)ethoxy)phenyl)-1,1-difluoromethanesulfonamide] | < 1 µM | 
> 10 µM | > 10 µM | < 0.001 µM |  | C[C@H](Oc1cc(-c2nn(C)c3c(-c4cnn(C5CCC(N(C)C)C5)c4)cnc(N)c23)ccc1NS(=O)(=O)C(F)F)c1ccc(F)cc1 (stereo partly drawn) [Compound 168, N-(4-(4-amino-7-(1-(3-(dimethylamino)cyclopentyl)-1H-pyrazol-4-yl)-1-methyl-1H-pyrazolo[4,3-c]pyridin-3-yl)-2-((S)-1-(4-fluorophenyl)ethoxy)phenyl)-1,1-difluoromethanesulfonamide] | < 1 µM | 

More lines, now with the values behind:

SMILES | Kd (human RIPK1) | Kd (human RIPK3) | Kd (human MLKL (full length); [2]) | Kd (human MLKL (full length); [3]) | IC50 ([1]; Table 24) | IC50 ([1]; Table 27)
C[C@H](Oc1cc(-c2nn(C)c3c(-c4cnn(C5CCN(C)C(C(F)(F)F)C5)c4)cnc(N)c23)ccc1NS(=O)(=O)C(F)F)c1ccc(F)cc1 (stereo partly drawn) [Compound 148, N-(4-(4-amino-1-methyl-7-(1-(1-methyl-2-(trifluoromethyl)piperidin-4-yl)-1H-pyrazol-4-yl)-1H-pyrazolo[4,3-c]pyridin-3-yl)-2-((S)-1-(4-fluorophenyl)eth-oxy)phenyl)-1,1-difluoromethane-sulfonamide] | > 10 µM | > 10 µM |  |  | < 1 µM | 
C[C@H](Oc1cc(-c2nn(C)c3c(-c4cnn(C5CC6CCC(C5)N6CC(F)(F)F)c4)cnc(N)c23)ccc1NS(=O)(=O)C(F)F)c1ccc(F)cc1 (stereo partly drawn) [Compound 153, N-(4-(4-amino-1-methyl-7-(1-(8-(2,2,2-trifluoroethyl)-8-azabicyclo[3.2.1]octan-3-yl)-1H-pyrazol-4-yl)-1H-pyrazolo[4,3-c]pyridin-3-yl)-2-((S)-1-(4-fluorophenyl)ethoxy)phenyl)-1,1-difluoromethanesulfonamide] | > 10 µM | > 10 µM |  |  | < 1 µM | 
C[C@H](Oc1cc(-c2nn(C)c3c(-c4cnn(C5CCN(C(=O)c6ccc7c(N8CCC(=O)NC8=O)coc7c6)CC5)c4)cnc(N)c23)ccc1NS(=O)(=O)C(F)F)c1ccc(F)cc1 [Compound 1117, N-{4-[4-amino-7-(1-{1-[3-(2,4-dioxo-1,3-diazinan-1-yl)-1-benzofuran-6-carbonyl]piperidin-4-yl}-1H-pyrazol-4-yl)-1-methyl-1H-pyrazolo[4,3-c]pyridin-3-yl]-2-[(1S)-1-(4-fluorophenyl)ethoxy]phenyl}-1,1-difluoromethanesulfonamide] |  |  |  | < 0.01 µM |  | 1 to 10 µM
C[C@H](Oc1cc(-c2nn(C)c3c(-c4cnn(C5CCN(CCc6cccc7c6C(=O)N(C6CCC(=O)NC6=O)C7=O)CC5)c4)cnc(N)c23)ccc1NS(=O)(=O)C(F)F)c1ccc(F)cc1 (stereo partly drawn) [Compound 1136, N-(4-{4-amino-7-[1-(1-{2-[2-(2,6-dioxopiperidin-3-yl)-1,3-dioxo-2,3-dihydro-1H-isoindol-4-yl]ethyl}piperidin-4-yl)-1H-pyrazol-4-yl]-1-methyl-1H-pyrazolo[4,3-c]pyridin-3-yl}-2-[(1S)-1-(4-fluorophenyl)ethoxy]phenyl)-1,1-difluoromethanesulfonamide] |  |  |  | < 0.01 µM |  | 1 to 10 µM
